The values below are quoted from earlier work in patent US20240274231A1, “Method, System and Computer Program Product for Determining Peptide Immunogenicity” (MyNeo NV, priority 2020, published 2024).

Where two headings read alike, the source gives them in different places.

The data set concerns CD8+ T cell responses. The following applies: stimulated IFN gamma ELISpot, peptide specific CD8+ T-cell responses among eleven evaluable breast cancer patients, vaccine plus poly-ICLC.

For the sequence “SLFRAVITK [MAGGE-A196-104, HLA-A3 MAGE-A196-104 vaccine peptide]”, the ELISpot was 1 borderline. Moreover, the ELISpot entry (listed as MAGE-A196-104) is “borderline response”.
